Where “and” joins values, the source holds several entries; their conditions need not be identical. Equal values may be shown once. Read-outs that look alike come from different tables or passages of the source. Marks after values point to notes of the source that are not given here.
What was measured:
[1] = determined experimentally, ref Doerge et al. (2011), cited from earlier work
[2] = test system: human breast-cancer cell lines; parameters: method as in Walsh et al. (2005); conditions: ref Walsh et al. (2005), read-out: EC50 for an increase of calcium ion concentration; cited from earlier work
[3] = in vivo; cited from earlier work
[4] = cited from earlier work
small intestine = conditions: cited from earlier work
liver [5] = conditions: cited from earlier work
[6] = PBPK model parametrization and calibration with biomonitoring data; parameters: species or system human; conditions: basic BPA model
Protocol: It consists of the compartments titled serum, liver, fat, skin, gonads, brain, “richly perfused tissue,” “slowly perfused tissue”, and two single-compartment submodules for BPA-g and BPA-s in serum (see Figure 2). In the compartment titled “richly perfused tissue,” compartments were lumped with a perfusion greater than 0.1mL/min/g tissue (heart, kidneys, small and large intestine, pancreas, spleen, and stomach), and in the compartment titled “slowly perfused tissue,” compartments were lumped with a perfusion smaller than 0.1mL/min/g tissue (muscle and skeleton) ([Edginton et al. 2006]; [ICRP 2002], see Table S1 for the aggregated parameters). […] Fixing the scaling error caused the aforementioned discrepancy, and we had to review and readjust the model parameters to the biomonitoring data.
In a first step to readjust and further develop the PBPK model, we collected all studies that investigated the metabolism parameters used in the model and gathered data from different studies that measured the same metabolism routes (see Table S2). […] For this purpose, we calculated the mean relative deviation (MRD) and average fold error (AFE) to assess precision and bias of the model predictions using Equations 1 and 2 ([Sheiner and Beal 1981]), as done previously ([Ito and Houston 2005]; [Vogt 2014]; [Yang et al. 2015]). […]

[7] = cited from earlier work; remark: listed apart in the source
[8] = ref Csanády et al. 2002; cited from earlier work
[9] = Margin of exposure (MOE = EC50/Cmax) back-of-the-envelope calculation; parameters: species or system human
liver [10] = conditions: ref Kurebayashi et al. (2010), cited from earlier work
[11] = ref Schönfelder et al. (2002); cited from earlier work
[12] = cited from earlier work; remark: listed apart in the source
[13] = EC50 (Kitamura et al. 2005)/highest Cmax of basic PBPK model (Table 9)
[14] = basic PBPK model, ref Yang et al. (2015)

## CC(C)(c1ccc(O)cc1)c1ccc(O)cc1 [BPA, bisphenol A]
[1]; value for brain used
  PTS richly perfused tissue/serum: 2.8
[1]; value for muscle used
  PTS slowly perfused tissue/serum: 2.7
[2]
  EC50: 0.1 nM
[3]
  AUC, mean (range), measured: 15.5 (0.986–23.2) nM*h for 1.5 h
  Cmax: 16.5 nM
[4]; mean, ref Bayer 1996, Korenman 1973
  logPow: 3.36
[4]; ref Bautista-Toledo et al. 2005
  pKa: 10.4 and ~10.4
Small intestine; read-out: Glucuronidation in enterocytes / intestinal glucuronidation Km, used in basic model, ref Trdan Lušin et al. (2012)
  Km: 58.4 µM
Small intestine; read-out: Glucuronidation in enterocytes Km range, ref Trdan Lušin et al. (2012), Mazur et al. (2010)
  Km: 58.4 to 80.1 µM
Small intestine; read-out: Intestinal glucuronidation Km ±SD, ref Mazur et al. (2010)
  Km: 80.1 µM
Small intestine; ref Mazur et al. (2010)
  Intestinal glucuronidation vmax ±SD: 29.2 ± 7.2 nmol/h/mg microsomal protein
Small intestine; ref Trdan Lušin et al. (2012), Mazur et al. (2010)
  Glucuronidation in enterocytes vmax range: 125–361^j nmol/h/g liver
Small intestine; ref Trdan Lušin et al. (2012)
  Glucuronidation in enterocytes vmax - used in basic model: 361^i nmol/h/g bw
  Intestinal glucuronidation vmax ±SD: 84.0 ± 6.0 nmol/h/mg microsomal protein
Liver [5]; arithmetic mean of female and male kinetics, ref Elsby et al. (2001)
  Hepatic glucuronidation vmax ±SD: 333 ± 21 nmol/h/mg microsomal protein
Liver [5]; arithmetic mean of female and male kinetics, ref Kuester and Sipes (2007)
  Hepatic glucuronidation vmax ±SD: 85.2 ± 31.4 nmol/h/mg microsomal protein
Liver [5]; arithmetic mean of female and male kinetics, ref Mazur et al. (2010)
  Hepatic glucuronidation vmax ±SD: 190 ± 16.9 nmol/h/mg microsomal protein
Liver [5]; range of published values, ref Coughlin et al. (2012), Kurebayashi et al. (2010), Trdan Lušin et al. (2012), Elsby et al. (2001), Kuester and Sipes (2007), Mazur et al. (2010), Street et al. (2017)
  Hepatic glucuronidation vmax range: 1,270–16,300^c nmol/h/g liver
Liver [5]; read-out: Hepatic glucuronidation Km ±SD, arithmetic mean of female and male kinetics, ref Elsby et al. (2001)
  Km: 71.9 µM
Liver [5]; read-out: Hepatic glucuronidation Km ±SD, arithmetic mean of female and male kinetics, ref Kuester and Sipes (2007)
  Km: 8.5 µM
Liver [5]; read-out: Hepatic glucuronidation Km ±SD, arithmetic mean of female and male kinetics, ref Mazur et al. (2010)
  Km: 4.25 µM
Liver [5]; read-out: Hepatic glucuronidation Km ±SD, ref Street et al. (2017)
  Km: 23 µM
Liver [5]; read-out: Hepatic glucuronidation Km ±SD, ref Trdan Lušin et al. (2012)
  Km: 8.9 µM
Liver [5]; read-out: Hepatic glucuronidation Km, n=1, ref Kurebayashi et al. (2010)
  Km: 5.3 µM
Liver [5]; read-out: Hepatic glucuronidation Km, used in basic model, ref Coughlin et al. (2012)
  Km: 45.8 µM
Liver [5]; ref Coughlin et al. (2012)
  Hepatic glucuronidation vmax - used in basic model: 9,040^a nmol/h/g liver
  Hepatic glucuronidation vmax ±SD: 283 ± 18 nmol/h/mg microsomal protein
Liver [5]; ref Kurebayashi et al. (2010)
  Hepatic glucuronidation vmax: 39.8 nmol/h/mg microsomal protein
Liver [5]; ref Street et al. (2017)
  Hepatic glucuronidation vmax ±SD: 270 ± 60 nmol/h/mg microsomal protein
Liver [5]; ref Trdan Lušin et al. (2012)
  Hepatic glucuronidation vmax ±SD: 510 ± 18 nmol/h/mg microsomal protein
[6]
  vmax of hepatic sulfation, times lower than that of hepatic glucuronidation: about 60 times
[7]; dissolved in ethanol, used for PCPs, ref Biedermann et al. 2010
  dermal absorption fraction: 60%
[7]; range over several studies, different study designs and solvents
  reported dermal absorption: 9.3% to 60
[8]
  fu (unbound fraction): 0.06
[9]; [13]
  MOE in gonads: 4,670
  MOE in serum: 12,000
[9]; EC50 of Walsh et al. (2005), Cmax P95/P95
  MOE in serum of females: 1.25
[9]; EC50 of Walsh et al. (2005), worst-case accumulation in the fetus
  MOE in fetal serum: 0.179
Liver [10]; read-out: Hepatic sulfation Km
  Km: 10.1 µM
Liver [10]
  Hepatic sulfation vmax: 149^n nmol/h/g liver
[11]
  fetal plasma concentration, times higher than corresponding maternal plasma: up to 7 times
[12]; basic PBPK model, ref Kortejärvi et al. (2007)
  Oral uptake from small intestine to liver: 2.10^a 1/h/kg BW^−0.25
[12]; [14]
  EHR as glucuronide: 0.20^f 1/h/kg BW^−0.25
  EHR unconjugated: 0.20^f 1/h/kg BW^−0.25
  Fraction of glucuronide in liver taken up directly into serum (no EHR): 0.9^f
  Urinary excretion glucuronide: 0.35^f 1/h/kg BW^0.75
[12]; unconjugated, basic PBPK model, ref Yang et al. (2015)
  Urinary excretion: 0.060^f 1/h/kg BW^0.75
[12]; used in BPA PBPK model, ref Yang et al. (2015)
  EHR share: 10%
